Laboratory results published in publication PMC6455008, “Methylation at the C-3′ in D-Ring of Strigolactone Analogs Reduces Biological Activity in Root Parasitic Plants and Rice” (Frontiers in Plant Science, 2019).
Where two headings read alike, the source gives them in different places.

What was measured:
[1] = Stability of SL analogs in aqueous solution by HPLC; type: physicochemical; settings: pH 6.8, 3-day intervals up to 3 weeks
Protocol: The SL analogs GR24, AR8, MP13, and MP26 were first tested for their stability by high-performance liquid chromatography (HPLC) in an aqueous solution (50 μgml^−1, pH, 6.8) by adopting the previously described procedure with minor modifications ([Jamil et al., 2018]). Each compound (1 mg) was dissolved in 1-ml acetone, and then […] out of the analog solution were diluted with 150 μl ethanol and 750 μl water. Thereafter, 25 μl Indanol (1 mg ml^−1, internal standard) was spiked in 975-μl test solution. The time course of degradation was monitored by ultra-performance liquid chromatography (UPLC) analysis using a Zorbax Eclipse XDB-C18 column (3.5 μm, 4.6 mm× 150 mm), eluted first by 5% acetonitrile in water for 0.5 min, then by a gradient flow from 5 to 100% acetonitrile within 17.5 min, and by 100% acetonitrile for 5 min. The column was operated at 40°C with a flow rate of 0.35 ml min^−1, and the temperature of auto-sampler was set at 21°C. Compounds eluted from the column were detected with a photodiode array detector, and the relative quantity of non-degraded amount was calculated by integrating corresponding peak areas and comparison with the internal standard Indanol. Stability was monitored at 3-day intervals up to 3 weeks.

Arabidopsis seedlings [2] = assay: Arabidopsis lateral root density assay; type: in vivo; settings: compared to control seedlings; for inhibition of lateral root density: 1.0 μM
Protocol: (§1) The sterilized Arabidopsis seeds were grown in petri plates that were first kept at 4°C in darkness for 3 days. For hypocotyl study, the petri plates were exposed to continuous white light for 24 h, then transferred to continuous monochromatic red light (20 μmol m^−2 s^−1, 22°C) conditions for another 4 days. For lateral root density, the plates were vertically grown at 22°C in Percival incubator under long day conditions (16 h at 22°C/8 h at 16°C day/night, 60% relative humidity, 60–70 μmol m^−2 s^−1 white light) for 8 days. After scanning, the hypocotyl length and number of lateral roots were recorded using publicly available ImageJ software.^1

OsD14 = target: T1, OsD14 (Oryza sativa subsp. japonica, UniProt Q10QA5); assay: In vitro YLG hydrolysis competition assay, OsD14; type: biochemical
T1 construct: made in house
T1 sequence (Q10QA5 1-318): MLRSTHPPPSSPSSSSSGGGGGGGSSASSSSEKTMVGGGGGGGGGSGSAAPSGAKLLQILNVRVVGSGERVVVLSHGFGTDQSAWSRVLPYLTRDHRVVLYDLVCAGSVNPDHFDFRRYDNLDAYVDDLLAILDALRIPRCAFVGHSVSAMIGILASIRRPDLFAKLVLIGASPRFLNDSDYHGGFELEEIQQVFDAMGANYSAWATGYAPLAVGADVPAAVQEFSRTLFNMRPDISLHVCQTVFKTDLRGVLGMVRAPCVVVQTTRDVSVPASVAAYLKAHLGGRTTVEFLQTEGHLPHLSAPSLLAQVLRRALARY
Protocol: Protein expression and purification of ShHTL7 and Oryza sativa D14 (OsD14) was carried out according to the procedure described earlier ([Jamil et al., 2018]). In vitro Yoshimulactone Green (YLG) hydrolysis assays ([Tsuchiya et al., 2015]) were carried out using 3.0 μM of protein ShHTL7 and OsD14 in a reaction buffer (1X PBS buffer, pH 7.3) with 0.1% DMSO at a 100-μl volume on a 96-well black plate (Greiner). For competitive assays, rac-GR24, AR8, MP13, and MP26 (at range between 0.01 and 50 μM) were co-incubated with 1.0 μM of YLG (Tokyo Chemical Industry Co. Ltd., product number E1238) for 60 min at room temperature. Fluorescent intensity was measured by spectraMax i5 (Molecular Devices) at excitation by 480 nm and detection by 520 nm. The change in fluorescence observed over the course of 1 h of YLG in buffer without protein was subtracted from the data collected in presence of protein. IC50 values were calculated by GraphPad (Prism 7).

Striga seeds [3] = assay: Stability of formulated SL analogs in sand (Striga germination readout); type: physicochemical, Striga hermonthica; settings: 1.0 μM; for Striga seed germinating activity before incubation in sand: no incubation
Protocol: (§2) The stability of formulated SL analogs was further tested in sand culture. About 1.5 ml of silver sand was added in each of 6 wells of 24-well plates. Then, 800 μl of formulated SL analogs (1.0 μM) was added in each of the six wells. The plates were sealed firmly with para-film, wrapped in aluminum foil, and placed at 30°C from day 1 to day 7. After 7 days, glass fiber discs containing preconditioned Striga seeds were placed on the top of each of the six wells and incubated in the dark at 30°C for 24 h. The germinated and non-germinated seeds were counted from each disc. In addition, the viability of formulated SL analogs was also tested in aqueous solution for 7 weeks at 30°C. About 800-μl aqueous solution of formulated SL analogs (1.0 μM) was added in a black Eppendorf tube weekly up to 6 weeks and incubated at 30°C. On the seventh week, about 50 μl of each analog was applied on a glass fiber disc containing preconditioned Striga seed and put again in the dark in sealed petri plates at 30°C for 24 h. Germinated and non-germinated seeds were counted from each disc.

P. aegyptiaca seeds = assay: Parasitic seed germination bioassay, Phelipanche; type: in vivo, Phelipanche aegyptiaca; settings: for EC50: Phelipanche aegyptiaca; for P. aegyptiaca germination rate: non-formulated, 1.0 μM, 1 week at 25°C
Protocol: Germination activity of SL analogs on S. hermonthica and P. aegyptiaca seeds was tested by following the procedure described before ([Jamil et al., 2012]). The preconditioned Striga and Phelipanche seeds were treated with 50 μl of each SL analog solution at a concentration range (10^−5–10^−12 M). GR24 and sterile MilliQ water were included as positive and negative controls, respectively. The treated seeds were allowed to germinate in the dark for 24 h at 30°C (for Striga) and for 1 week at 25°C (for Phelipanche). The germinated and non-germinated seeds were counted under a binocular microscope, and germination rate (in %) was calculated.
Collected data were analyzed statistically using statistical software package R (version 3.2.2).

Arabidopsis seedlings [4] = assay: Arabidopsis hypocotyl elongation assay; type: in vivo; settings: compared to control seedlings; for inhibition of hypocotyl growth (reduction in hypocotyl length): 1.0 μM
Protocol: as §1

Striga hermonthica = assay: Striga emergence in pots under greenhouse conditions (suicidal germination, rice host); type: in vivo; settings: formulated 1.0 μM; for Striga emergence at 10 WAS / decrease in Striga emergence compared to mock at 10 WAS: 10 weeks after sowing; for Striga hermonthica emergence, 5 WAS / Striga hermonthica emergence, 6 WAS / Striga hermonthica emergence, 7 WAS / Striga hermonthica emergence, 8 WAS / Striga hermonthica emergence, 9 WAS / Striga hermonthica emergence, 10 WAS: mean ± SE; for Striga hermonthica emergence, 5 WAS: n=5, 5 weeks after sowing; for Striga hermonthica emergence, 6 WAS: n=5, 6 weeks after sowing; for Striga hermonthica emergence, 7 WAS: n=5, 7 weeks after sowing; for Striga hermonthica emergence, 8 WAS: n=5, 8 weeks after sowing; for Striga hermonthica emergence, 9 WAS: n=5, 9 weeks after sowing; for Striga hermonthica emergence, 10 WAS: n=5, 10 weeks after sowing; for percent decrease in Striga hermonthica emergence over mock, 8 WAS / percent decrease in Striga hermonthica emergence over mock, 9 WAS / percent decrease in Striga hermonthica emergence over mock, 10 WAS: negative = decrease
Protocol: About 10 mg of (ca 4,000) Striga seeds were thoroughly mixed in 2 L of sand and soil mixture (1:1) and added in 3-L perforated plastic pot containing 0.5 L of clean soil in the bottom. Striga seeds were first preconditioned by giving light irrigation and putting pots at 35°C in greenhouse for 10 days. Each pot was sprayed with 20-ml (1.0 μM) formulated SL analogs up to 10 days at 2-day intervals. A light irrigation was given next day of each application to move the compound to Striga seeds and they were allowed to germinate for suicidal death without host for another 1 week. Then, three rice seedlings (5 days old) were planted in the middle of each pot. The rice plants were grown under normal growth condition (30°C, 70% RH) for 8 weeks. Number of emerged Striga plants in each pot were counted.

Striga seeds [5] = assay: Stability of formulated SL analogs in aqueous solution under storage (Striga germination readout); type: physicochemical, Striga hermonthica; settings: 1.0 μM
Protocol: as §2

[6] = read-out: EC50 P. aegyptiaca seed germination, formulated
[7] = read-out: EC50 P. aegyptiaca seed germination, non-formulated

Row | Compound | stability by HPLC (relative amount of non-degraded analog) [1] | inhibition of lateral root density (Arabidopsis seedlings [2]) | IC50 (OsD14) [µM] | Striga seed germinating activity before incubation in sand (Striga seeds [3]) | Striga seed germinating activity after 1 day in sand (Striga seeds [3]; sand, 30°C) | EC50 (P. aegyptiaca seeds; [6]) [nM] | EC50 (P. aegyptiaca seeds; [7]) [nM] | P. aegyptiaca germination rate (P. aegyptiaca seeds) | inhibition of hypocotyl growth (reduction in hypocotyl length) (Arabidopsis seedlings [4]) | Striga emergence at 10 WAS (Striga hermonthica) | decrease in Striga emergence compared to mock at 10 WAS (Striga hermonthica) | Striga hermonthica emergence, 5 WAS (Striga hermonthica) | Striga hermonthica emergence, 6 WAS (Striga hermonthica) | Striga hermonthica emergence, 7 WAS (Striga hermonthica) | Striga hermonthica emergence, 8 WAS (Striga hermonthica) | Striga hermonthica emergence, 9 WAS (Striga hermonthica) | Striga hermonthica emergence, 10 WAS (Striga hermonthica) | percent decrease in Striga hermonthica emergence over mock, 8 WAS (Striga hermonthica) [%] | percent decrease in Striga hermonthica emergence over mock, 9 WAS (Striga hermonthica) [%] | percent decrease in Striga hermonthica emergence over mock, 10 WAS (Striga hermonthica) [%] | also measured
1 | CC1=CC(O/C=C(\C)C=O)OC1=O (stereo not shown) [MP13, (E)-2-methyl-3-[(4-methyl-5-oxo-2,5-dihydrofuran-2-yl)oxy]acrylaldehyde] | lowest stability throughout the whole 3 weeks of analysis | did not lead to a significant effect | 3.45 ± 1.2 | around 60% | 10% | 250 | 32 | around 68% | did not lead to a significant effect | six | 52% | 0.0±0.0 | 1.6±1.0 | 2.6±0.6 | 4.8±0.6 | 5.8±0.6 | 6.2±0.7 | -56 | -51 | -52 | Striga seed germinating activity after 2 days in sand (Striga seeds [3]; sand, 30°C, 2 days): complete loss of the activity; Striga germination rate after 1 week's storage (Striga seeds [5]; 30°C): 9%; Striga germination activity after 2 weeks of storage (Striga seeds [5]; 30°C, 2 weeks): not detectable; Striga germination rate before storage (Striga seeds [5]): 53%
2 | COC(=O)/C=C/C(C)=C/OC1C=C(C)C(=O)O1 (stereo not shown) [MP26, (2E,4E)-methyl 4-methyl-5-(4-methyl-5-oxo-2,5-dihydrofuran-2-yloxy)penta-2,4-dienoate] | equal stability as GR24 up to 6 days of incubation |  | 2.07 ± 0.8 | around 60% | 27% | 99 | 520 | around 68% |  | four | 69% | 0.0±0.0 | 0.8±0.6 | 1.4±0.4 | 2.6±0.4 | 3.6±0.8 | 4.0±0.9 | -76 | -68 | -69 | inhibition at 1 µM (Arabidopsis seedlings [2]; Arabidopsis thaliana): 43%; Striga seed germinating activity after day 3 in sand (Striga seeds [3]; sand, 30°C, after day 3): not detectable; inhibition at 1 µM (Arabidopsis seedlings [4]; Arabidopsis thaliana, read-out: inhibition of hypocotyl growth (reduction in hypocotyl length)): 15%; Striga germination rate after 6 weeks of storage (Striga seeds [5]; 30°C, 6 weeks): 4%; Striga germination rate before storage (Striga seeds [5]): 69%
3 | CC1=C(C)C(O/C=C(\C)C=O)OC1=O (stereo not shown) [AR8, reference compound] | slightly less stability than GR24 and MP26 but more than MP13 | did not lead to a significant effect | 4.87 ± 0.78 |  | completely lost its ability to induce Striga germination | 320 | 970 | 32% | did not lead to a significant effect | 11 plants per pot | around 18% | 0.4±0.2 | 4.4±0.5 | 7.2±1.5 | 10.6±1.5 | 10.8±1.5 | 10.6±1.5 | -4 | -11 | -18 | Striga germination rate after 1 week's storage (Striga seeds [5]; 30°C): total loss of activity
